This is an account of results in ChEMBL document CHEMBL5357054, “Expanding the Chemical Diversity of Grisechelins via Heterologous Expression” (2024).

Assay [1] concerns Mycobacterium tuberculosis. Briefly: Antibacterial activity against autoluminescent Mycobacterium tuberculosis H37Ra by 7H9 broth based assay. The assay is classed as functional.
Another assay concerns Acinetobacter baumannii. Description: Antibacterial activity against Acinetobacter baumannii ATCC 19606 incubated for 24 hrs by broth microdilution method. The class given is functional, organism-based. (In general: Broth dilution looks for growth in wells or tubes with falling amounts of substance.)
The test system of the next assay is Staphylococcus aureus. Briefly: Antibacterial activity against methicillin resistant Staphylococcus aureus ATCC 43300 incubated for 24 hrs by broth microdilution method. The assay is classed as functional, organism-based.

SMILES strings stand for the structures. In brackets after ≈: the same amount, converted by molar mass. Activity calls are given as the source filed them. The calls are words filed in the database; no cut-off is given here.

As a reminder, the MIC is the lowest concentration found to suppress growth. Low values mean a more susceptible organism, high ones a less susceptible organism. For `OCc1csc(-c2nc3ccc(Cl)cc3c(Cl)c2O)n1`, in assay [1], it took 8 µg/mL (≈ 24.5 µM) to inhibit growth (MIC).

For the compound `O=C(O)c1nc2ccc(Cl)cc2cc1O`, the result (with Acinetobacter baumannii; in assay [1]; in the assay with Staphylococcus aureus) was inactive.

Consider `NC(=O)[C@@H]1CSC(c2csc(-c3nc4ccc(Cl)cc4cc3O)n2)=N1`, for which the outcome (with Acinetobacter baumannii; in assay [1]; in the assay on Staphylococcus aureus) was inactive.

For `NC(=O)c1csc(-c2csc(-c3nc4ccccc4c(Cl)c3O)n2)n1`, the result (in the assay with Acinetobacter baumannii; in assay [1]; with Staphylococcus aureus) was inactive.

With `NC(=O)c1nc2ccc(Cl)cc2c(Cl)c1O`, the outcome (in the assay on Acinetobacter baumannii; in assay [1]; in the assay with Staphylococcus aureus) was inactive.

As to `O=C(OCc1csc(-c2nc3ccc(Cl)cc3c(Cl)c2O)n1)c1ccccc1O`, the outcome (with Acinetobacter baumannii; in assay [1]; in the assay with Staphylococcus aureus) was inactive.

As for `CC(=O)/C=C/c1csc(-c2nc3ccc(Cl)cc3c(Cl)c2O)n1`, the result (in the assay with Acinetobacter baumannii; in assay [1]; in the assay on Staphylococcus aureus) was inactive.

With `OCc1csc(-c2nc3ccccc3cc2O)n1`, the outcome (in the assay on Acinetobacter baumannii; in assay [1]; in the assay on Staphylococcus aureus) was inactive.

Turning to `OCc1csc(-c2nc3ccccc3c(Cl)c2O)n1`, the outcome (in the assay with Acinetobacter baumannii; in assay [1]; in the assay with Staphylococcus aureus) was inactive.

Regarding `NC(=O)[C@@H]1CSC(c2csc(-c3nc4ccccc4cc3O)n2)=N1`, the outcome (with Acinetobacter baumannii; in assay [1]; in the assay with Staphylococcus aureus) was inactive.
